The text below walks through data of patent US7442717B2, “Substituted 2-aminoimidazoles, process for their preparation, their use as medicament or diagnostic aid” (Sanofi-Aventis Deutschland GmbH, priority 2003, dated 2008).

Where a name gives a salt, the structure may show the parent alone.

The target in test [1] is T1, rNHE3 (Rattus norvegicus, UniProt P26433).
T1 construct: expressed in transfected cells; host or cells: LAP 1 cells (fibroblasts)
The test is described as follows: Recovery of intracellular pH (pHi) after acidification, BCECF fluorescence, in fibroblasts (LAP 1 cells). It counts as cell-based. The settings on record: pH recovery in LAP 1 fibroblasts. Here is the method:
In this test, the recovery in the intracellular pH (pHi) after an acidification was ascertained, which is initiated if the NHE3 is capable of functioning, even under bicarbonate-free conditions. For this purpose, the pHi was determined using the pH-sensitive fluorescent dye BCECF (Calbiochem, the precursor BCECF-AM is employed). The cells (fibroblasts, LAP 1 cells) were initially loaded with BCECF. The BCECF fluorescence was determined in a “Ratio Fluorescence Spectrometer” (Photon Technology International, South Brunswick, N.J., USA) at excitation wavelengths of 505 and 440 nm and an emission wavelength of 535 nm and converted into the pHi using calibration curves. The cells were incubated in NH4Cl buffer (pH 7.4) (NH4Cl buffer: 115 mM NaCl, 20 mM NH4Cl, 5 mM KCl, 1 mM CaCl2, 1 mM MgSO4, 20 mM Hepes, 5 mM glucose, 1 mg/ml BSA; a pH of 7.4 is adjusted with 1 M NaOH) even during the BCECF loading. The intracellular acidification was induced by adding 975 μl of an NH4Cl-free buffer (see below) to 25 μl aliquots of the cells incubated in NH4Cl buffer. The subsequent rate of pH recovery was recorded for three minutes. To calculate the inhibitory potency of the tested substances, the cells were initially investigated in buffers with which a complete or absolutely no pH recovery took place. For complete pH recovery (100%), the cells were incubated in Na^+-containing buffer (133.8 mM NaCl, 4.7 mM KCl, 1.25 mM CaCl2, 1.25 mM MgCl2, 0.97 mM Na2HPO4, 0.23 mM NaH2PO4, 5 mM Hepes, 5 mM glucose, a pH of 7.0 is adjusted with 1 M NaOH). To determine the 0% value, the cells were incubated in an Na^+-free buffer (133.8 mM choline chloride, 4.7 mM KCl, 1.25 mM CaCl2, 1.25 mM MgCl2, 0.97 mM K2HPO4, 0.23 mM KH2PO4, 5 mM Hepes, 5 mM glucose, a pH of 7.0 is adjusted with 1 M KOH). The substances to be tested were made up in the Na^+-containing buffer. The recovery of the intracellular pH at each test concentration of a substance was expressed as a percentage of the maximum recovery. The IC50 value for the particular substance for the individual NHE subtypes was calculated from the pH recovery percentages using the Sigma-Plot program.

The subject of test [2] is adrenergic α2 receptor. Conditions: literature, Ernsberger et al Eur. J. Pharmacol. 134, 1, 1987; cited from earlier work.
Test [3] relates to imidazoline I1 receptor. Conditions: literature, Ernsberger et al Eur. J. Pharmacol. 134, 1, 1987; cited from earlier work.
Test [4] has as its target NHE2 (Rattus norvegicus, UniProt P48763). The settings on record: read-out: IC50 for NHE2; literature value, J. Orlowski et al; cited from earlier work.
Test [5] concerns the target NHE3 (Oryctolagus cuniculus, UniProt P26432). Conditions: literature, M. Donowitz et al. Am. J. Physiol. 276; cited from earlier work.

T1 sequence (P26433 29-831): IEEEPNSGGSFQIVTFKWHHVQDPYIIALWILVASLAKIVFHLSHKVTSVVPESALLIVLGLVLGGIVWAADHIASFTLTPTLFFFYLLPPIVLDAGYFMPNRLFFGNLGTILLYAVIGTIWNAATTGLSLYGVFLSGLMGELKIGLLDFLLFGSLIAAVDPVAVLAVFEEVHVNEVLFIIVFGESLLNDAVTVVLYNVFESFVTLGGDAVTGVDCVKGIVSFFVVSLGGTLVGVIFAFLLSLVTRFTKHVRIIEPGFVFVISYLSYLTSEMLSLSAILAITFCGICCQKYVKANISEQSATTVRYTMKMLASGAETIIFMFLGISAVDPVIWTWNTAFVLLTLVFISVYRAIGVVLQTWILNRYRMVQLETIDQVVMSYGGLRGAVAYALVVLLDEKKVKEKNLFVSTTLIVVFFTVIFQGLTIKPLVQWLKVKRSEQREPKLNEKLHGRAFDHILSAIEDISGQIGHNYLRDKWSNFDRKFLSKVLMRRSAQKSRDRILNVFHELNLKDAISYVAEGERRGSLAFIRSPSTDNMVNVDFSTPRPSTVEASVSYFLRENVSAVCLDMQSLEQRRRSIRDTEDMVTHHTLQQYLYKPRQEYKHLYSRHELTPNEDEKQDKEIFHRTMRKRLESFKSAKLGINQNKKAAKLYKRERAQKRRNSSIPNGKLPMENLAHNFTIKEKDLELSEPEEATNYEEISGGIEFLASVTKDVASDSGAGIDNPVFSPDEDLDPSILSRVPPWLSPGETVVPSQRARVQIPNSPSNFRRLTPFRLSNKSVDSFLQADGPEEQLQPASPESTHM
Chain of NHE3 (P26432 30-832): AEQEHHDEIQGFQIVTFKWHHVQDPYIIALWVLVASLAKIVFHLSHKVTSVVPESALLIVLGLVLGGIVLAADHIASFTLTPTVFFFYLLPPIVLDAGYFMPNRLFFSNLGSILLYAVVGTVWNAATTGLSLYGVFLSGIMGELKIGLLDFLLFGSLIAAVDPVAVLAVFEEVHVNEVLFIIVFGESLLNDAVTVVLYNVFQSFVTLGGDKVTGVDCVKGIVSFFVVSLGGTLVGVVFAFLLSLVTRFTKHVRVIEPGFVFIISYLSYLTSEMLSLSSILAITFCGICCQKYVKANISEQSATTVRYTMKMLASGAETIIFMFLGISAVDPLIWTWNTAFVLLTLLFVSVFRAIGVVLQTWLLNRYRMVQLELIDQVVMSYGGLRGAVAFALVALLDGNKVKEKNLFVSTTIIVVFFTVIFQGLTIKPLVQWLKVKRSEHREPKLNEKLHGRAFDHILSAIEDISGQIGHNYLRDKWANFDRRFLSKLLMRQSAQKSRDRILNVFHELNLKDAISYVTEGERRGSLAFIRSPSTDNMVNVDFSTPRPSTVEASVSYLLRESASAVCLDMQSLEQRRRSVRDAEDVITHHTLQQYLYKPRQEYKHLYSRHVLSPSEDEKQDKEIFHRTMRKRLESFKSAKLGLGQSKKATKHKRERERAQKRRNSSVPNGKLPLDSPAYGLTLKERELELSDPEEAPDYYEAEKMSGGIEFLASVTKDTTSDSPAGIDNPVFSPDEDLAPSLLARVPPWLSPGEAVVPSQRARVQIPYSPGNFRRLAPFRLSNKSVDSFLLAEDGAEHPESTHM
Chain of NHE2 (P48763 whole entry): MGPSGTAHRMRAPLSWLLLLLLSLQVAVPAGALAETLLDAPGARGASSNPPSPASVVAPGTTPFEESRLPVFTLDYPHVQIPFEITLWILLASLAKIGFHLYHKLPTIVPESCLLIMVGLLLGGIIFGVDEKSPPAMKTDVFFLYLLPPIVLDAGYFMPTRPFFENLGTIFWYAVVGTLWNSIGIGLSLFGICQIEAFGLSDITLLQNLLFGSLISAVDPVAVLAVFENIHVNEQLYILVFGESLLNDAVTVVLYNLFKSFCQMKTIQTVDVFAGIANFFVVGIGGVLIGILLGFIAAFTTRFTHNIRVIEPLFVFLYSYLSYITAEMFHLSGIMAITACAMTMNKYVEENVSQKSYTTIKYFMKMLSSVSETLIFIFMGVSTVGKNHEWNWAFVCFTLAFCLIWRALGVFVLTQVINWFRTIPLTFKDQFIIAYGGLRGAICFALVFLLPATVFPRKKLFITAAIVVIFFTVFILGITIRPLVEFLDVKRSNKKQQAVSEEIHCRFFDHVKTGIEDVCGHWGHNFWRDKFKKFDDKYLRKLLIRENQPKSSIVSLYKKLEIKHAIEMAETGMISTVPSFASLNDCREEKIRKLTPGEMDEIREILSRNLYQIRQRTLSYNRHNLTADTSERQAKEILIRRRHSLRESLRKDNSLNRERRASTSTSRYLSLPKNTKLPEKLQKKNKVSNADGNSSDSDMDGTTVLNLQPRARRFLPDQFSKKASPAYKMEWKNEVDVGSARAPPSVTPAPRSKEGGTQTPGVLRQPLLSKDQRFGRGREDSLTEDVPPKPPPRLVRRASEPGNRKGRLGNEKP

`Cc1nc(Nc2c(Cl)cccc2Cl)[nH]c1C` [Example 3, (2,6-Dichlorophenyl)(4,5-dimethyl-1H-imidazol-2-yl)amine hydrochloride] registered an IC50 in test [1] of 0.84 µM. On the same count and under the same terms, then `N#Cc1nc(Nc2c(Cl)cccc2Cl)[nH]c1C#N` [Example 6, 2-(2,6-Dichlorophenylamino)-1H-imidazole-4,5-dicarbonitrile], with 98 µM. Consider `Clc1cccc(Cl)c1N=C1NCCN1` [Clonidine], for which the “affinity for the adrenergic α2 receptor” value in test [2] is given as “high affinity”. Besides, in test [3], the “affinity for the imidazoline I1 receptor” value was “high affinity”. Moreover, the IC50 in test [4] is 42 µM. Consider `CN(c1nc2c([nH]1)CCCC2)c1c(Cl)cccc1Cl` [Example 7, hydrochloride], for which the IC50 in test [1] worked out at 0.28 µM. Still for that read-out and setting: the value for `Clc1cccc(Cl)c1Nc1nc2c([nH]1)CCCC2` [Example 5, (2,6-Dichlorophenyl)(4,5,6,7-tetrahydro-1H-benzoimidazol-2-yl)amine hydrochloride] was 0.24 µM; that for `Clc1cccc(Cl)c1Nc1ncc[nH]1` [Example 1, (2,6-Dichlorophenyl)(1H-imidazol-2-yl)amine hydrochloride] was 7.7 µM; that for `Cc1c[nH]c(Nc2c(Cl)cccc2Cl)n1` [Example 2, (2,6-Dichlorophenyl)(4-methyl-1H-imidazol-2-yl)amine hydrochloride] was 1.7 µM. Consider `CC(C)[C@@H](CC[C@@H](C)[C@H]1CC[C@H]2[C@@H]3[C@H](O)C[C@H]4C[C@@H](NCCCNCCCCN)CC[C@]4(C)[C@H]3CC[C@]12C)OS(=O)(=O)O` [Squalamine], for which the “time to maximum strength of NHE3-inhibiting effect” value in test [5] was “only after one hour”.

As a reminder, the IC50 is the midpoint of a concentration-inhibition curve.
